Series [1] deals with Euschistus heros (Neotropical Brown Stink Bug). The experiment in a line: Example B2: Euschistus heros, spray on soybean leaves. Type of series: in vivo. The conditions noted are these: 120 h, application rate of 200 ppm, N2 nymphs, 5 days after infestation, read-out: control in at least one of the two categories (mortality or growth inhibition). The method, then:
Example B2: Euschistus heros (Neotropical Brown Stink Bug)
Soybean leaves on agar in 24-well microtiter plates were sprayed with aqueous test solutions prepared from 10,000 ppm DMSO stock solutions. After drying the leaves were infested with N2 nymphs. The samples were assessed for mortality and growth inhibition in comparison to untreated samples 5 days after infestation.
(§1) The following compounds gave an effect of at least 80% control in at least one of the two categories (mortality or growth inhibition) at an application rate of 200 ppm: […]

For series [2], the system named is Myzus persicae (Green Peach Aphid). The series is described as follows: Example B10: Myzus persicae, sucrose solution, 96-well. Type of series: in vivo. The settings on record: 120 h, application rate of 50 ppm, 5 days after infestation. The source says:
Example B10: Myzus persicae (Green Peach Aphid)
Test compounds prepared from 10,000 ppm DMSO stock solutions were applied by a liquid handling robot into 96-well microtiter plates and mixed with a sucrose solution. Parafilm was stretched over the 96-well microtiter plate and a plastic stencil with 96 holes was placed onto the plate. Aphids were sieved into the wells directly onto the Parafilm. The infested plates were closed with a gel blotting card and a second plastic stencil and then turned upside down. The samples were assessed for mortality 5 days after infestation.

Series [3] relates to Diabrotica balteata (Corn Root Worm). The series is described as follows: Example B1: Diabrotica balteata, spray on maize sprouts. Type of series: in vivo. The conditions noted are these: 96 h, application rate of 200 ppm, L2 larvae, 4 days after infestation, read-out: control in at least one of the two categories (mortality or growth inhibition). Here is the method: Example B1: Diabrotica balteata (Corn Root Worm)
Maize sprouts placed onto an agar layer in 24-well microtiter plates were treated with aqueous test solutions prepared from 10,000 ppm DMSO stock solutions by spraying. After drying, the plates were infested with L2 larvae (6 to 10 per well). The samples were assessed for mortality and growth inhibition in comparison to untreated samples 4 days after infestation.
as §1

Series [4] concerns Chilo suppressalis (Striped Rice Stemborer). The series is described as follows: Example B3: Chilo suppressalis, artificial diet. Type of series: in vivo. The conditions noted are these: 144 h, application rate of 200 ppm, L2 larvae, 6 days after infestation, read-out: control in at least one of the three categories (mortality, anti-feedant effect, or growth inhibition). Here is the method: Example B3: Chilo suppressalis (Striped Rice Stemborer)
24-well microtiter plates with artificial diet were treated with aqueous test solutions prepared from 10,000 ppm DMSO stock solutions by pipetting. After drying, the plates were infested with L2 larvae (6-8 per well). The samples were assessed for mortality, anti-feeding effect, and growth inhibition in comparison to untreated samples 6 days after infestation. Control of Chilo suppressalis by a test sample is given when at least one of the categories mortality, anti-feedant effect, and growth inhibition is higher than the untreated sample.

Series [5] concerns Plutella xylostella (Diamond Back Moth). The experiment in a line: Example B4: Plutella xylostella, artificial diet, 24-well. The conditions noted are these: 192 h, application rate of 200 ppm, eggs, 8 days after infestation, read-out: control in at least one of the two categories (mortality or growth inhibition). Type of series: in vivo. The method, then:
Example B4: Plutella xylostella (Diamond Back Moth)
24-well microtiter plates with artificial diet were treated with aqueous test solutions prepared from 10,000 ppm DMSO stock solutions by pipetting. After drying, Plutella eggs were pipetted through a plastic stencil onto a gel blotting paper and the plate was closed with it. The samples were assessed for mortality and growth inhibition in comparison to untreated samples 8 days after infestation.
as §1

Series [6] deals with Spodoptera littoralis (Egyptian Cotton Leaf Worm). The series is described as follows: Example B6: Spodoptera littoralis, spray on cotton leaf discs. Type of series: in vivo. The settings on record: foliar, 72 h, application rate of 200 ppm, L1 larvae, 3 days after infestation, read-out: control in at least one of the three categories (mortality, anti-feedant effect, or growth inhibition). The method, then: Example B6: Spodoptera littoralis (Egyptian Cotton Leaf Worm)
Cotton leaf discs were placed onto agar in 24-well microtiter plates and sprayed with aqueous test solutions prepared from 10,000 ppm DMSO stock solutions. After drying the leaf discs were infested with five L1 larvae. The samples were assessed for mortality, anti-feeding effect, and growth inhibition in comparison to untreated samples 3 days after infestation. Control of Spodoptera littoralis by a test sample is given when at least one of the categories mortality, anti-feedant effect, and growth inhibition is higher than the untreated sample.

Series [7] has the same test system. The experiment in a line: Example B7: Spodoptera littoralis, uptake by lettuce roots from agar. Type of series: in vivo. The settings on record: 144 h, test rate of 12.5 ppm, absorbed by lettuce roots, eggs, 6 days after infestation, read-out: control in at least one of the three categories (mortality, anti-feeding, or growth inhibition). The source says: Example B7: Spodoptera littoralis (Egyptian Cotton Leaf Worm)
Test compounds were applied by pipette from 10,000 ppm DMSO stock solutions into 24-well plates and mixed with agar. Lettuce seeds were placed onto the agar and the multi well plate was closed by another plate which contained also agar. After 7 days the compound was absorbed by the roots and the lettuce grew into the lid plate. The lettuce leaves were then cut off into the lid plate. Spodoptera eggs were pipetted through a plastic stencil onto a humid gel blotting paper and the lid plate was closed with it. The samples were assessed for mortality, anti-feedant effect and growth inhibition in comparison to untreated samples 6 days after infestation.
The following compounds gave an effect of at least 80% control in at least one of the three categories (mortality, anti-feeding, or growth inhibition) at a test rate of 12.5 ppm: […]

For series [8], the system named is Plutella xylostella (Diamondback Moth). The series is described as follows: Example B9: Plutella xylostella, artificial diet, 96-well. Type of series: in vivo. The conditions noted are these: 216 h, application rate of 500 ppm, eggs/L1 larvae, 9 days after infestation. The method, then: Example B9: Plutella xylostella (Diamondback Moth)
96-well microtiter plates containing artificial diet were treated with aqueous test solutions, prepared from 10,000 ppm DMSO stock solutions, by a liquid handling robot. After drying, eggs (˜30 per well) were infested onto a netted lid which was suspended above the diet. The eggs hatch and L1 larvae move down to the diet. The samples were assessed for mortality 9 days after infestation.
The following compounds gave an effect of at least 80% mortality at an application rate of 500 ppm: […]

This note sets out measurements from US20220289715A1, “PESTICIDALLY ACTIVE PYRAZINE-AMIDE COMPOUNDS” (priority 2019, published 2022).

By mortality is commonly meant the share of the test organisms that died. Turning to `COc1cc(OC)cc(C(=O)NC(C)c2nccnc2-n2nccn2)c1` (stereo not shown) [Compound P23, 3,5-dimethoxy-N-[1-[3-(triazol-2-yl)pyrazin-2-yl]ethyl]benzamide], the percent control (mortality or growth inhibition) at 200 ppm in [1] was not below 80%. The compound also registered a mortality at 50 ppm in [2] not below 80%.

Broadly, the melting point is the temperature of the solid-liquid transition. `Cc1cc(F)cc(C(=O)NC(C)c2nccnc2-n2nccn2)c1` (stereo not shown) [Compound P37, 3-fluoro-5-methyl-N-[1-[3-(triazol-2-yl)pyrazin-2-yl]ethyl]benzamide] had a melting point of 154 to 155 °C.

With `CCCc1cc(C(=O)NC(C)c2nccnc2-n2nccn2)cc(Cl)n1` (stereo not shown) [Compound P34, 2-chloro-6-propyl-N-[1-[3-(triazol-2-yl)pyrazin-2-yl]ethyl]pyridine-4-carboxamide], the melting point lay within 142 to 145 °C.

As for `CC(NC(=O)c1cc(OC(F)F)cc(C(F)(F)F)c1)c1nccnc1-n1nccn1` (stereo not shown) [Compound P10, 3-(difluoromethoxy)-N-[1-[3-(triazol-2-yl)pyrazin-2-yl]ethyl]-5-(trifluoromethyl)benzamide], the percent control (mortality or growth inhibition) at 200 ppm in [3] and in [5] was not below 80% each time. Further, the percent control (mortality, anti-feedant effect or growth inhibition) at 200 ppm in series [4] and in series [6] was not below 80% each time. Besides, the percent control (mortality, anti-feeding or growth inhibition) at 12.5 ppm in [7] is not below 80%. The same compound had a mortality at 500 ppm in [8] not below 80%. The mortality at 50 ppm in series [2] was not below 80%.

With `CC(NC(=O)c1cc(Cl)nc(Cl)c1)c1nccnc1-n1nccn1` (stereo not shown) [Compound P29, 2,6-dichloro-N-[1-[3-(triazol-2-yl)pyrazin-2-yl]ethyl]pyridine-4-carboxamide], the percent control (mortality or growth inhibition) at 200 ppm in [3] and in series [5] was not below 80% in each case. The percent control (mortality, anti-feedant effect or growth inhibition) at 200 ppm in series [4] and in series [6] was not below 80% in each case. In addition, the percent control (mortality, anti-feeding or growth inhibition) at 12.5 ppm in [7] is not below 80%. This compound also yielded a mortality at 500 ppm in series [8] not below 80%. This compound also yielded a mortality at 50 ppm in series [2] not below 80%.

Turning to `CC(NC(=O)c1cc(C(F)(F)F)cc(C(F)(F)F)c1)c1nccnc1-n1nccn1` (stereo not shown) [Compound P49, N-[1-[3-(triazol-2-yl)pyrazin-2-yl]ethyl]-3,5-bis(trifluoromethyl)benzamide], the percent control (mortality or growth inhibition) at 200 ppm in series [3], in series [1] and in series [5] was not below 80% each time. In addition, the percent control (mortality, anti-feedant effect or growth inhibition) at 200 ppm in [4] and in [6] was not below 80% throughout. Also, the percent control (mortality, anti-feeding or growth inhibition) at 12.5 ppm in [7] is not below 80%.

As to `CC(NC(=O)c1cc(Br)cc(C(F)(F)F)c1)c1nccnc1-n1nccn1` (stereo not shown) [Compound P2, 3-bromo-N-[1-[3-(triazol-2-yl)pyrazin-2-yl]ethyl]-5-(trifluoromethyl)benzamide], the percent control (mortality or growth inhibition) at 200 ppm in series [3], in series [1] and in series [5] was not below 80% in each case. For the same compound, the percent control (mortality, anti-feedant effect or growth inhibition) at 200 ppm in series [4] and in series [6] was not below 80% each time. The percent control (mortality, anti-feeding or growth inhibition) at 12.5 ppm in series [7] is not below 80%. The compound also came in with a mortality at 500 ppm in [8] not below 80%. For the same compound, the mortality at 50 ppm in [2] was not below 80%.

As for `CC(NC(=O)c1cc(OC(F)(F)F)cc(C(F)(F)F)c1)c1nccnc1-n1nccn1` (stereo not shown) [Compound P5, N-[1-[3-(triazol-2-yl)pyrazin-2-yl]ethyl]-3-(trifluoromethoxy)-5-(tifluoromethyl)benzamide], the percent control (mortality or growth inhibition) at 200 ppm in series [3] and in [5] was not below 80% each time. Also, the percent control (mortality, anti-feedant effect or growth inhibition) at 200 ppm in series [4] and in series [6] was not below 80% throughout. Besides, the percent control (mortality, anti-feeding or growth inhibition) at 12.5 ppm in series [7] was not below 80%. This compound came in with a mortality at 500 ppm in series [8] not below 80%.

Consider `COc1cc(C)cc(C(=O)NC(C)c2nccnc2-n2nccn2)c1` (stereo not shown) [Compound P27, 3-methoxy-5-methyl-N-[1-[3-(triazol-2-yl)pyrazin-2-yl]ethyl]benzamide], for which the melting point lay within 128 to 129 °C.

The compound `CCc1cc(C(=O)NC(C)c2nccnc2-n2nccn2)cc(Cl)n1` (stereo not shown) [Compound P31, 2-chloro-6-ethyl-N-[1-[3-(triazol-2-yl)pyrazin-2-yl]ethyl]pyridine-4-carboxamide] displayed a melting point of 126 to 129 °C.

In the case of `CCOc1cc(C(=O)NC(C)c2nccnc2-n2nccn2)cc(Cl)n1` (stereo not shown) [Compound P21, 2-chloro-6-ethoxy-N-[1-[3-(triazol-2-yl)pyrazin-2-yl]ethyl]pyridine-4-carboxamide], the melting point lay within 129 to 130 °C.

In the case of `CC(NC(=O)c1cc(Cl)cc(Cl)c1)c1nccnc1-n1nccn1` (stereo not shown) [Compound P20, 3,5-dichloro-N-[1-[3-(triazol-2-yl)pyrazin-2-yl]ethyl]benzamide], the percent control (mortality or growth inhibition) at 200 ppm in series [3], in series [1] and in series [5] was not below 80% each time. The percent control (mortality, anti-feedant effect or growth inhibition) at 200 ppm in series [4] and in [6] was not below 80% each time.

Regarding `CC(NC(=O)c1cc(Cl)cc(C(F)(F)F)c1)c1nccnc1-n1nccn1` (stereo not shown) [Compound P4, 3-chloro-N-[1-[3-(triazol-2-yl)pyrazin-2-yl]ethyl]-5-(trifluoromethyl)benzamide], the percent control (mortality or growth inhibition) at 200 ppm in [3], in series [1] and in series [5] was not below 80% throughout. The percent control (mortality, anti-feedant effect or growth inhibition) at 200 ppm in [4] and in series [6] was not below 80% each time. In addition, in series [7], the percent control (mortality, anti-feeding or growth inhibition) at 12.5 ppm is not below 80%. The same compound had a mortality at 500 ppm in series [8] not below 80%. Besides, the mortality at 50 ppm in [2] was not below 80%.

On to `Cc1cnc(C(C)NC(=O)c2cc(C(F)(F)F)cc(C(F)(F)F)c2)c(-n2ccnn2)n1` (stereo not shown) [Compound P43, N-[1-[5-methyl-3-(triazol-1-yl)pyrazin-2-yl]ethyl]-3,5-bis(trifluoromethyl)benzamide], for which the melting point was in the range of 167 to 171 °C.
